Our source for the melting point values is patent publication US6861420B2, “N-substituted 1,2,4,5-tetrahydro-1H-benzo[d]azepine compounds” (Pharmacia & Upjohn Company, priority 2001, dated 2005).

Molecules are shown by their SMILES.

On to `O=C(NC1CN2CCC1CC2)N1CCc2ccccc2CC1` (stereo not shown), for which the melting point was > 120 °C (dec.).

In turn, `O=C(N[C@@H]1CN2CCC1CC2)N1CCc2ccccc2CC1` yielded a melting point of 128 to 132 °C.

For `Cc1ncccc1Oc1ccc(NC(=O)N2CCc3ccccc3CC2)cn1` [Example 1, N-{6-[(2-methylpyridin-3-yl)oxy]pyridin-3-yl}-1,2,4,5-tetrahydro-3H-3-benzazepine-3-carboxamide], the melting point lay in the range of 171 to 173 °C.

For the compound `Cc1ncccc1Oc1ccc(NC(=O)N2CCc3ccc(-n4c(C)ccc4C)cc3CC2)cn1` [Example 2, 7-(2,5-Dimethyl-1H-pyrrol-1-yl)-N-{6-[(2-methylpyridin-3-yl)oxy]pyridin-3-yl}-1,2,4,5-tetrahydro-3H-3-benzazepine-3-carboxamide], the melting point is 101 °C (dec.).

The compound `O=C(Nc1cccnc1)N1CCc2ccccc2CC1` [Example 5, 1,2,4,5-Tetrahydro-benzo[d]azepine-3-carboxylic acid pyridin-3-ylamide] displayed a melting point of 144 to 146 °C.

Take `O=C(Nc1cccnc1Cl)N1CCc2ccccc2CC1` [Example 6, N-[2-Chloropyridin-3-yl]-1,2,4,5-tetrahydro-3H-3-benzazepine-3-carboxamide]: the melting point fell in the range of 120 to 122 °C.

`O=C(Nc1ccc(Cl)nc1)N1CCc2ccccc2CC1` [Example 7, N-(6-chloropyridin-3-yl)-1,2,4,5-tetrahydro-3H-3-benzazepine-3-carboxamide]: the melting point was in the range of 170 to 172 °C.

As to `COc1ccc(Oc2ccc(NC(=O)N3CCc4ccccc4CC3)cn2)cc1` [Example 9, N-[6-(4-Methoxyphenoxy)pyridin-3-yl]-1,2,4,5-tetrahydro-3H-3-benzazepine-3-carboxamide], the melting point is 156 to 157 °C.

The compound `O=C(Nc1ccc(Oc2ccc(Cl)cc2)nc1)N1CCc2ccccc2CC1` [Example 10, N-[6-(4-Chlorophenoxy)pyridin-3-yl]-1,2,4,5-tetrahydro-3H-3-benzazepine-3-carboxamide] gave a melting point of 135 to 137 °C.

On to `O=C(Nc1ccc(Oc2ccccc2F)nc1)N1CCc2ccccc2CC1` [Example 11, N-[6-(2-Fluorophenoxy)pyridin-3-yl]-1,2,4,5-tetrahydro-3H-3-benzazepine-3-carboxamide], for which the melting point was 170 to 172 °C.

As to `CC(C)Oc1ccccc1Oc1ccc(NC(=O)N2CCc3ccccc3CC2)cn1` [Example 12, N-[6-(2-isopropoxyphenoxy)pyridin-3-yl]-1,2,4,5-tetrahydro-3H-3-benzazepine-3-carboxamide], the melting point lay within 149 to 152 °C.

In turn, `Cc1cc(Cl)ccc1Oc1ccc(NC(=O)N2CCc3ccccc3CC2)cn1` [Example 13, N-[6-(2-Methyl-4-chlorophenoxy)pyridin-3-yl]-1,2,4,5-tetrahydro-3H-3-benzazepine-3-carboxamide] returned a melting point of 151 to 153 °C.

As for `Cc1cc(Oc2ccc(NC(=O)N3CCc4ccccc4CC3)cn2)ccc1Cl` [Example 14, N-[6-(3-Methyl-4-chlorophenoxy)pyridin-3-yl]-1,2,4,5-tetrahydro-3H-3-benzazepine-3-carboxamide], the melting point was in the range of 171 to 173 °C.

With `O=C(Nc1ccc(Oc2ccc(Cl)cc2Cl)nc1)N1CCc2ccccc2CC1` [Example 15, N-[6-(2,4-Dichlorophenoxy)pyridin-3-yl]-1,2,4,5-tetrahydro-3H-3-benzazepine-3-carboxamide], the melting point was in the range of 154 to 155 °C.

For `Cc1cc(Oc2ccc(NC(=O)N3CCc4ccccc4CC3)cn2)cc(C)c1Cl` [Example 16, N-[6-(4-Chloro-3,5-dimethylphenoxy)pyridin-3-yl]-1,2,4,5-tetrahydro-3H-3-benzazepine-3-carboxamide], the melting point was in the range of 208 to 209 °C.

Compound `O=C(NC1CCCNC1)N1CCc2ccccc2CC1` (stereo not shown) [Example 17, N-Piperidin-3-yl-1,2,4,5-tetrahydro-3H-3-benzazepine-3-carboxamide] came in with a melting point of 214 to 216 °C.

By melting point is commonly meant the temperature, or range, at which the solid turns liquid.
